Reference: patent publication US10815212B2, “Cytotoxin compounds and methods of isolation” (priority 2004, dated 2020)

Key:
[1] = Field-based feeding-deterrent assays
[2] = tested on: National Cancer Institute (NCI) 60 cell line panel
[3] = tested on: LOX IMVI; assay: cells; details: Homo sapiens, read-out: LC50
[4] = tested on: SK-MEL-5; assay: cells; details: Homo sapiens, SK-MEL-5, read-out: LC50
[5] = tested on: UACC-62
[6] = tested on: HCC-2998; assay: cells; details: Homo sapiens, HCC 2998, read-out: LC50
[7] = tested on: National Cancer Institute (NCI) 60 cell line panel; assay: cells; details: read-out: LC50
[8] = tested on: RXF 393; assay: cells; details: Homo sapiens, RXF 393, read-out: LC50
[9] = tested on: M14; assay: cells; details: Homo sapiens, M14, read-out: LC50

C/C(C=O)=C\C(C)C1C/C(C)=C/C=C/CCC(OC(N)=O)C(O)/C=C/C(O)CCC/C=C/C(=O)O1 (stereo not shown) [Palmerolide E]
bioactivity in field-based feeding-deterrent assays [1]: displayed bioactivity
activity/potency relative to palmerolide A (in words) ([2]; NCI 60 cell line bioassay): reduced activity

CC(C)=CC(=O)N/C=C/C(C)=C/C(C)C1C/C(C)=C/C=C/CCC(OC(N)=O)C(O)/C=C/C(O)CCC/C=C/C(=O)O1 (stereo not shown) [Palmerolide A]
CC50 [3]: 9.8 µM
bioactivity in field-based feeding-deterrent assays [1]: displayed bioactivity
CC50 [4]: 6.8 µM
cytotoxicity (in words) [5]: displays cytotoxicity
CC50 [6]: 6.5 µM
selectivity index among tested cell lines ([2]; most sensitive cells relative to other cell lines tested): 10^3
CC50 [7]: > 10 µM
CC50 [8]: 6.5 µM
CC50 [9]: 76 nM

C=C(C)C/C(C)=C\C(=O)N/C=C/C(C)=C/C(C)C1C/C(C)=C/C=C/CCC(OC(N)=O)C(O)/C=C/C(O)CCC/C=C/C(=O)O1 (stereo not shown) [Palmerolide D]
bioactivity in field-based feeding-deterrent assays [1]: displayed bioactivity

CC(C)=CC(=O)N/C=C/C(C)=C/C(C)C1C/C(C)=C/C=C/CCCC(OC(N)=O)C(O)C(O)/C=C/CC/C=C/C(=O)O1 (stereo not shown) [Palmerolide C]
bioactivity in field-based feeding-deterrent assays [1]: displayed bioactivity
